Laboratory results as given in publication PMC9967118, “Influence of Mutations of Conserved Arginines on Neuropeptide Binding in the DPP III Active Site” (Molecules, 2023).
Changes are numbered by the printed parent chain. Like-named read-outs stand apart in the source and are kept apart here. Where no end group is shown, it is not given here.

Experiments:
[1] = target: T1, Human DPP3 variant R669A (Homo sapiens, UniProt Q9NY33, R669A); assay: Inhibition of DPP III catalyzed hydrolysis of Arg2-2NA, R669A variant; format: biochemical
T1 construct: made in house; host or cells: E. coli
T1 sequence (Q9NY33 1-737 R669A): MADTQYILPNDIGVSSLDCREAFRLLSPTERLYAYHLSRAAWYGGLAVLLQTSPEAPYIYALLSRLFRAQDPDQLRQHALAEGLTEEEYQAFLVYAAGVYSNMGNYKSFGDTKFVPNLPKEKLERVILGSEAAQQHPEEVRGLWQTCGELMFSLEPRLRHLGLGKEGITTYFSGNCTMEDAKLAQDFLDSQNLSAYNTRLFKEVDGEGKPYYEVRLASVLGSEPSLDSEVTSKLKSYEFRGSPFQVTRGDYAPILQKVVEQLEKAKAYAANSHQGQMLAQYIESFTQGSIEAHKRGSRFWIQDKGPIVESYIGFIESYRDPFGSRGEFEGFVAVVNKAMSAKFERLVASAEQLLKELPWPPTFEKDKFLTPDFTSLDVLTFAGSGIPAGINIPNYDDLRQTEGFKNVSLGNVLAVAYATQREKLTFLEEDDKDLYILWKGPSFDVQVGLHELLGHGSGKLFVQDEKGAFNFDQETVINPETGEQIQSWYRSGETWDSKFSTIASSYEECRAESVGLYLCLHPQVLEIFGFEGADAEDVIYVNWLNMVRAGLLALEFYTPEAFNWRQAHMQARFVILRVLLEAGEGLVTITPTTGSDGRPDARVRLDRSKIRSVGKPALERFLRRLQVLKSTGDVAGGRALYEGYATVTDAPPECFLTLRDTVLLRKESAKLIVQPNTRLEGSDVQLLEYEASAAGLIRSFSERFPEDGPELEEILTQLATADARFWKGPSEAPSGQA
Experimental: (§1) Human DPP3 wild-type (WT) and variants R669A and R669M were expressed in E. coli and purified using IMAC, as described in detail recently. Briefly, variants were prepared using a QuikChange II site-directed mutagenesis kit (Agilent Technologies, Santa Clara, CA, USA) while following the manufacturer’s instructions, with the hDPP3 gene on a pET21a plasmid as template. Complementary primer pairs were ordered from Macrogen Europe (The Netherlands) with the following sequences:
(§2) Proteins were expressed in E. coli for approximately 20 h at 18 °C, shaken at 120 rpm, and paired with 0.25 mM IPTG as an expression inductor. Cell pellets were lysed with lysosyme and with sonication; the lysate was then purified with DNAse I and through centrifugation, and affinity chromatography was performed on a Rotigarose His/Ni column. Lysis, wash, and elution buffers contained imidazole at concentrations of 10 mM, 20 mM, and 300 mM, respectively, and all buffers contained 50 mM Tris pH = 8.0, 300 mM NaCl. Fractions were pooled based on protein concentration (determined by using a BioDrop microvolume spectrophotometer) and purity (assessed by SDS-PAGE), and they were desalted on a PD-10 column with 20 mM Tris-Cl buffer, pH = 7.5. Aliquots were frozen and stored at −80 °C.
(§3) Enzyme kinetics were measured using an Agilent Cary Eclipse fluorescence spectrophotometer (Agilent Technologies, Santa Clara, CA, USA) with Arg2-2NA as a substrate analog and fluorescent 2NA as the product of the peptidase reaction. The assay has been described in detail previously. Arg2-2NA and peptide in 20 mM Tris-Cl buffer pH = 7.4 were pre-incubated at 25 °C for 2 min before the reaction was started by adding the enzyme into the cuvette. Substrate concentrations ranged from 0.25 to 100 μM. The peptide (inhibitor) concentrations were chosen so the output could be easily measured. […] Three peptide concentrations were used for each peptide. The enzyme concentration was 1 nM in all measurements.

[2] = target: T2, Human DPP3 wild-type (WT) (Homo sapiens, UniProt Q9NY33); assay: Michaelis–Menten test for the hydrolysis of Arg2-2NA, wild-type enzyme; format: biochemical; conditions: enzyme 1 nM, 20 mM Tris-Cl pH 7.4, 25 °C, best fit ± standard error
T2 construct: made in house; host or cells: E. coli
T2 sequence (Q9NY33 1-737): T1 sequence (Q9NY33 1-737 R669A) with A669R
Experimental: as §1
as §2, with “Lysis, wash, and elution buffers contained imidazole at concentrations of 10 mM, 20 mM, and 300 mM, respectively, and all buffers contained 50 mM Tris pH = 8.0, 300 mM NaCl.” left out, “Aliquots were frozen and stored at −80 °C.” left out
(§4) Enzyme kinetics were measured using an Agilent Cary Eclipse fluorescence spectrophotometer (Agilent Technologies, Santa Clara, CA, USA) with Arg2-2NA as a substrate analog and fluorescent 2NA as the product of the peptidase reaction. […] The peptide (inhibitor) concentrations were chosen so the output could be easily measured. […]

[3] = target: T1, Human DPP3 variant R669A; assay: Michaelis–Menten test for the hydrolysis of Arg2-2NA, R669A variant; format: biochemical; conditions: enzyme 1 nM, 20 mM Tris-Cl pH 7.4, 25 °C, best fit ± standard error
Experimental: as §1
as §2, with “Lysis, wash, and elution buffers contained imidazole at concentrations of 10 mM, 20 mM, and 300 mM, respectively, and all buffers contained 50 mM Tris pH = 8.0, 300 mM NaCl.” left out, “Aliquots were frozen and stored at −80 °C.” left out
as §4

[4] = target: T3, Human DPP3 variant R669M (Homo sapiens, UniProt Q9NY33, R669M); assay: Michaelis–Menten test for the hydrolysis of Arg2-2NA, R669M variant; format: biochemical; conditions: enzyme 1 nM, 20 mM Tris-Cl pH 7.4, 25 °C, best fit ± standard error
T3 construct: made in house; host or cells: E. coli
T3 sequence (Q9NY33 1-737 R669M): T1 sequence (Q9NY33 1-737 R669A) with A669M
Experimental: as §1
as §2, with “Lysis, wash, and elution buffers contained imidazole at concentrations of 10 mM, 20 mM, and 300 mM, respectively, and all buffers contained 50 mM Tris pH = 8.0, 300 mM NaCl.” left out, “Aliquots were frozen and stored at −80 °C.” left out
as §4

[5] = target: T2, Human DPP3 wild-type (WT); assay: Inhibition of DPP III catalyzed hydrolysis of Arg2-2NA, wild-type enzyme; format: biochemical
Experimental: as §1, §2, §3

[6] = target: T3, Human DPP3 variant R669M; assay: Inhibition of DPP III catalyzed hydrolysis of Arg2-2NA, R669M variant; format: biochemical
Experimental: as §1, §2, §3

[7] = system: DPP III; conditions: human renal epithelial cells; cited from earlier work
From the text: (§5) Dipeptidyl peptidase III (DPP III, EC 3.4.14.4) is a monozinc metallopeptidase that hydrolyzes dipeptides from the N-terminus of its substrates consisting of three or more amino acids. DPP III is the only member of the M49 metallopeptidase family and the only metalloenzyme among dipeptidyl peptidases. This two-domain exopeptidase is broadly distributed in human tissues, where it participates in the final stages of protein turnover.

[8] = system: human DPP III (hDPP III); design: method as in 2 sources, one per row (each row's own in cited_ref): ref 17 = [17]; PMID 35163780; doi:10.3390/ijms23031858; 17. Tomić A. Tomić S. Demystifying DPP III Catalyzed Peptide Hydrolysis—Computational Study of the Complete Catalytic Cycle of Human DPP III Catalyzed Tynorphin Hydrolysis Int. J. Mol. Sci. 2022 23 18 ||| ref 18 = [18]; PMID 36116590; doi:10.1016/j.ijbiomac.2022.09.119; 18. Karačić Z. Šupljika F. Tomić A. Brkljačić L. Paić A.T. Ćehić M. Tomić S. Neuropeptides, Substrates and Inhibitors of Human Dipeptidyl Peptidase III, Experimental and Computational Study—A New Subs; conditions: computational and experimental study of neuropeptides; cited from earlier work
From the text: Despite the efforts of numerous scientists, knowledge about the role that DPP III might play in various physiological processes is still unclear. […] In this and in QM/MM studies ...

[9] = system: angiotensin II-infused hypertensive mice; conditions: cited from earlier work
From the text: as §5

[10] = substrate 0.25–100 μM, fluorescence of 2NA
[11] = WT hDPP III 1 nM, substrate Arg2-2NA 0.25–100 μM, 20 mM Tris-Cl pH 7.4, 25 °C, 2 min pre-incubation, fluorescence of 2NA, competitive inhibition, best fit ± standard error, inhibitor tynorphin 1–50 nM, valorphin 15–150 nM
[12] = R669M hDPP III 1 nM, substrate Arg2-2NA 0.25–100 μM, 20 mM Tris-Cl pH 7.4, 25 °C, 2 min pre-incubation, fluorescence of 2NA, competitive inhibition, best fit ± standard error, tynorphin 1–5 μM, valorphin 0.75–11.2 μM

For Arg2-2NA, the “effect of mutation of R669 to Ala or Met on inhibitory properties / binding” value ([1]; R669A or R669M versus WT, inhibitory assays) was “small”, the kcat [2] was 3.74 ± 0.07 s⁻¹ and the Km [2, 10] was 7.8 ± 0.6 µM. The kcat [3] was 2.24 ± 0.05 s⁻¹, the Km [3, 10] was 3.4 ± 0.3 µM and the kcat [4] was 2.26 ± 0.03 s⁻¹. It also gave a Km [4, 10] of 2.8 ± 0.2 µM.

VVYPW [tynorphin] gave a Ki [5, 11] of 11.2 ± 0.8 nM, a Ki [1] of 328 ± 25 nM and a Ki [6, 12] of 102 ± 16 nM.

Work on VVYPWTQ [valorphin] yielded a Ki [5, 11] of 36.5 ± 2.9 nM, a Ki [1] of 1210 ± 224 nM and a Ki [6, 12] of 406 ± 33 nM.

For `CC(C)C[C@H](NC(=O)[C@H](Cc1ccccc1)NC(=O)CNC(=O)CNC(=O)[C@@H](N)Cc1ccc(O)cc1)C(=O)O` [Leu-enkephalin], the Ki [5] was 10400 ± 1400 nM, the Ki [1] was 52000 ± 5300 nM and the Ki [6] was 58000 ± 7000 nM. For the same molecule, the “effects of the R669M and R669A mutations on the Ki” value ([6]; R669M versus R669A) was “the same”.

In the case of “angiotensin (1–7): peptide degraded by DPP III in human renal epithelial cells (DRVYIHP; Angiotensin 1-7; UniProt P01019 25-31, looked up)”, the “degradation by DPP III” value [7] is given as “DPP III degrades angiotensin (1–7)”.

For β-casomorphin, the “in vitro substrate identification / substrate class with hDPP III” value [8] is listed as “in vitro substrates of hDPP III”.

B1: DPP III: zinc exopeptidase (EC 3.4.14.4), M49 family (protein, UniProt Q9NY33 2-737, looked up)
Dipeptidyl peptidase 3: ADTQYILPNDIGVSSLDCREAFRLLSPTERLYAYHLSRAAWYGGLAVLLQTSPEAPYIYALLSRLFRAQDPDQLRQHALAEGLTEEEYQAFLVYAAGVYSNMGNYKSFGDTKFVPNLPKEKLERVILGSEAAQQHPEEVRGLWQTCGELMFSLEPRLRHLGLGKEGITTYFSGNCTMEDAKLAQDFLDSQNLSAYNTRLFKEVDGEGKPYYEVRLASVLGSEPSLDSEVTSKLKSYEFRGSPFQVTRGDYAPILQKVVEQLEKAKAYAANSHQGQMLAQYIESFTQGSIEAHKRGSRFWIQDKGPIVESYIGFIESYRDPFGSRGEFEGFVAVVNKAMSAKFERLVASAEQLLKELPWPPTFEKDKFLTPDFTSLDVLTFAGSGIPAGINIPNYDDLRQTEGFKNVSLGNVLAVAYATQREKLTFLEEDDKDLYILWKGPSFDVQVGLHELLGHGSGKLFVQDEKGAFNFDQETVINPETGEQIQSWYRSGETWDSKFSTIASSYEECRAESVGLYLCLHPQVLEIFGFEGADAEDVIYVNWLNMVRAGLLALEFYTPEAFNWRQAHMQARFVILRVLLEAGEGLVTITPTTGSDGRPDARVRLDRSKIRSVGKPALERFLRRLQVLKSTGDVAGGRALYEGYATVTDAPPECFLTLRDTVLLRKESRKLIVQPNTRLEGSDVQLLEYEASAAGLIRSFSERFPEDGPELEEILTQLATADARFWKGPSEAPSGQA
For B1, the blood pressure [9] is listed as “lowering blood pressure”.
